Assay results taken from patent US9353051B2, “Antiviral drugs for treatment or prevention of dengue infection” (Siga Technologies Inc., priority 2007, dated 2016).
Where two headings read alike, the source gives them in different places.

Test system: Dengue-2 (Strain New Guinea C)
Assay: viral yield assay against Dengue-2 in Vero cells
Format: cell-based
Conditions: Dengue virus; for EC90: read-out: EC90 Yield Den-2
Procedure: Compounds that were active in the primary screen were also tested for activity in viral yield assays. […] Vero cells in 12-well plates were infected with dengue-2 virus at a multiplicity of infection (MOI) of 0.1, treated with compound (or DMSO as a control), incubated at 37° C., harvested 48 hours post infection and titered on Vero cells as described above. The EC50 was calculated through ExcelFit. Those compounds with activity below 1 μM are indicated with “A”, those with activity between 1 and 10 μM are indicated with “B”, those with activity between 10 and 25 μM with “C”, and those with activity above 25 μM are indicated with “D”.

[1] = Vero cells, MOI 0.1, harvested 48 hours post infection, read-out: Activity (anti-dengue 2 viral activity, EC50)

O=C(Cn1cnc2ccccc2c1=O)Nc1ccc(S(=O)(=O)Nc2nccs2)cc1 [Compound 32, 2-(4-Oxo-4H-quinazolin-3-yl)-N-[4-(thiazol-2-ylsulfamoyl)-phenyl]-acetamide]
EC50 [1]: > 25 µM

CCN(CC)S(=O)(=O)c1ccc(NC(=O)Cn2cnc3sccc3c2=O)cc1 [Compound 5, N-(4-Diethylsulfamoyl-phenyl)-2-(4-oxo-4H-thieno[2,3-d]pyrimidin-3-yl)-acetamide]
EC50 [1]: 1 to 10 µM

NS(=O)(=O)c1ccc(NC(=O)Cn2nc(C(=O)O)c3ccccc3c2=O)cc1 [Compound 108, 4-Oxo-3-[(4-sulfamoyl-phenylcarbamoyl)-methyl]-3,4-dihydro-phthalazine-1-carboxylic acid]
EC50 [1]: > 25 µM

O=C(Cn1cnc2ccccc2c1=O)Nc1ccc(S(=O)(=O)NCCCN2CCOCC2)cc1 [Compound 40, N-[4-(3-Morpholin-4-yl-propylsulfamoyl)-phenyl]-2-(4-oxo-4H-quinazolin-3-yl)-acetamide]
EC50 [1]: > 25 µM

CCN(CC(=O)Nc1ccc(S(=O)(=O)N(CC)CC)cc1)Cc1nc2cc(Cl)ccc2c(=O)[nH]1 [Compound 75, 2-[(7-Chloro-4-oxo-3,4-dihydro-quinazolin-2-ylmethyl)-ethyl-amino]-N-(4-diethylsulfamoyl-phenyl)-acetamide]
EC50 [1]: > 25 µM

CCN(CC)S(=O)(=O)c1ccc(NC(=O)CNC(=O)c2cc(C)cc(C)c2)cc1 [Compound 63, N-[(4-Diethylsulfamoyl-phenylcarbamoyl)-methyl]-3,5-dimethyl-benzamide]
EC50 [1]: > 25 µM

O=C(Cn1cnc2cc(F)ccc2c1=O)Nc1ccc(S(=O)(=O)N2CCCCCC2)cc1 [Compound 139, N-[4-(Azepane-1-sulfonyl)-phenyl]-2-(7-fluoro-4-oxo-4H-quinazolin-3-yl)-acetamide]
EC50 [1]: > 25 µM

O=C(Cn1cnc2ccccc2c1=O)Nc1ccc(S(=O)(=O)NC2CCS(=O)(=O)C2)cc1 (centres unmarked) [Compound 48, N-[4-(1,1-Dioxo-tetrahydro-1lambda*6*- thiophen-3-ylsulfamoyl)-phenyl]-2-(4-oxo-4H-quinazolin-3-yl)-acetamide]
EC50 [1]: > 25 µM

O=C(Cn1cnc2ccc([N+](=O)[O-])cc2c1=O)Nc1ccc(S(=O)(=O)N2CCCCC2)cc1 [Compound 134, 2-(6-Nitro-4-oxo-4H-quinazolin-3-yl)-N-[4-(piperidine-1-sulfonyl)-phenyl]-acetamide]
EC50 [1]: > 25 µM

CC(NS(=O)(=O)c1ccc(NC(=O)Cn2nnc3ccccc3c2=O)cc1)C1CC2CCC1C2 (centres unmarked) [Compound 83, N-[4-(1-Bicyclo[2.2.1]hept-2-yl-ethylsulfamoyl)-phenyl]-2-(4-oxo-4H-benzo[d][1,2,3]triazin-3-yl)-acetamide]
EC50 [1]: > 25 µM

CCc1cc2c(=O)n(CC(=O)Nc3ccc(S(=O)(=O)N(CC)CC)cc3)cnc2s1 [Compound 11, N-(4-Diethylsulfamoyl-phenyl)-2-(6-ethyl-4-oxo-4H-thieno[2,3-d]pyrimidin-3-yl)-acetamide]
EC50 [1]: 1 to 10 µM
EC50 (viral yield assay, Vero cells, read-out: EC50 Yield Den-2): 4.9 µM
EC90 (viral yield assay, Vero cells): > 50 µM

CCN(CC)S(=O)(=O)c1ccc(NC(=O)CNC(=O)c2ccc(-c3ccccc3)cc2)cc1 [Compound 80, Biphenyl-4-carboxylic acid [(4-diethylsulfamoyl-phenylcarbamoyl)-methyl]-amide]
EC50 [1]: > 25 µM

CCCCN(C)S(=O)(=O)c1ccc(NC(=O)Cn2cnc3ccccc3c2=O)cc1 [Compound 35, N-[4-(Butyl-methyl-sulfamoyl)-phenyl]-2-(4-oxo-4H-quinazolin-3-yl)-acetamide]
EC50 [1]: > 25 µM

CCN(CC)S(=O)(=O)c1ccc(OC)c(NC(=O)Cn2nnc3ccccc3c2=O)c1 [Compound 20, N-(5-Diethylsulfamoyl-2-methoxy-phenyl)-2-(4-oxo-4H-benzo[d][1,2,3]triazin-3-yl)-acetamide]
EC50 (Vero, read-out: EC50 Yield Den-2): 1.3 µM
EC90 (Vero): 20 µM
EC50 [1]: 1 to 10 µM

CCN(CC)S(=O)(=O)c1ccc(NC(=O)Cn2cnc3cc(F)ccc3c2=O)cc1 [Compound 57, N-(4-Diethylsulfamoyl-phenyl)-2-(7-fluoro-4-oxo-4H-quinazolin-3-yl)-acetamide]
EC50 [1]: > 25 µM

COc1ccc(S(=O)(=O)N(C)C)cc1NC(=O)COC(=O)Cn1cnc2ccccc2c1=O [Compound 125, (4-Oxo-4H-quinazolin-3-yl)-acetic acid (5-dimethylsulfamoyl-2-methoxy-phenylcarbamoyl)-methyl ester]
EC50 [1]: > 25 µM

CN(C1CCCCC1)S(=O)(=O)c1ccc(NC(=O)Cn2cnc3ccccc3c2=O)cc1 [Compound 49, N-[4-(Cyclohexyl-methyl-sulfamoyl)-phenyl]-2-(4-oxo-4H-quinazolin-3-yl)-acetamide]
EC50 [1]: > 25 µM

O=C(Cn1cnc2ccccc2c1=O)Nc1cccc(S(=O)(=O)N2CCCC2)c1 [Compound 121, 2-(4-Oxo-4H-quinazolin-3-yl)-N-[3-(pyrrolidine-1-sulfonyl)-phenyl]-acetamide]
EC50 [1]: > 25 µM

CCN(CC)S(=O)(=O)c1ccc(C(C)NC(=O)CCn2nnc3ccccc3c2=O)cc1 (centres unmarked) [Compound 68, N-[1-(4-Diethylsulfamoyl-phenyl)-ethyl]-3-(4-oxo-4H-benzo[d][1,2,3]triazin-3-yl)-propionamide]
EC50 [1]: > 25 µM

CCN(CC)S(=O)(=O)c1ccc(NC(=O)CCn2nnc3ccccc3c2=O)cc1 [Compound 77, N-(4-Diethylsulfamoyl-phenyl)-3-(4-oxo-4H-benzo[d][1,2,3]triazin-3-yl)-propionamide]
EC50 [1]: > 25 µM

O=C(Cn1nnc2ccccc2c1=O)Nc1ccc(S(=O)(=O)N2CCOCC2)cc1 [Compound 82, N-[4-(Morpholine-4-sulfonyl)-phenyl]-2-(4-oxo-4H-benzo[d][1,2,3]triazin-3-yl)-acetamide]
EC50 [1]: > 25 µM

CC(C)NS(=O)(=O)c1ccc(NC(=O)Cn2cnc3ccccc3c2=O)cc1 [Compound 44, N-(4-Isopropyl-sulfamoyl-phenyl)-2-(4-oxo-4H-quinazolin-3-yl)-acetamide]
EC50 [1]: > 25 µM

CN(C)S(=O)(=O)c1ccc(NC(=O)Cn2nnc3ccccc3c2=O)cc1 [Compound 85, N-(4-Dimethylsulfamoyl-phenyl)-2-(4-oxo-4H-benzo[d][1,2,3]triazin-3-yl)-acetamide]
EC50 [1]: > 25 µM

O=C(Cn1cnc2cc([N+](=O)[O-])ccc2c1=O)Nc1ccc(S(=O)(=O)N2CCCC2)cc1 [Compound 123, 2-(7-Nitro-4-oxo-4H-quinazolin-3-yl)-N-[4-(pyrrolidine-1-sulfonyl)-phenyl]-acetamide]
EC50 [1]: > 25 µM

CN(C)S(=O)(=O)c1cccc(COC(=O)Cn2cnc3ccccc3c2=O)c1 [Compound 128, (4-Oxo-4H-quinazolin-3-yl)-acetic acid 3-dimethylsulfamoyl-benzyl ester]
EC50 [1]: > 25 µM

CC(=O)NCCc1ccc(S(=O)(=O)Nc2ccc3ncn(Cc4ccccc4)c(=O)c3c2)cc1 [Compound 104, N-{2-[4-(3-Benzyl-4-oxo-3,4-dihydro-quinazolin-6-ylsulfamoyl)-phenyl]-ethyl}-acetamide]
EC50 [1]: > 25 µM

CCn1c(=O)c2ccccc2n(CC(=O)NCCc2ccc(S(N)(=O)=O)cc2)c1=O [Compound 101, 2-(3-Ethyl-2,4-dioxo-3,4-dihydro-2H-quinazolin-1-yl)-N-[2-(4-sulfamoyl-phenyl)-ethyl]-acetamide]
EC50 [1]: > 25 µM

CCN(CC)S(=O)(=O)c1cccc(NC(=O)Cn2cnc3ccccc3c2=O)c1 [Compound 65, N-(3-Diethylsulfamoyl-phenyl)-2-(4-oxo-4H-quinazolin-3-yl)-acetamide]
EC50 [1]: > 25 µM

CCN(CC)S(=O)(=O)c1ccc2c(c1)CCN2Cc1nc2ccccc2c(=O)n1C [Compound 96, 1-(3-Methyl-4-oxo-3,4-dihydro-quinazolin-2-ylmethyl)-2,3-dihydro-1H-indole-5-sulfonic acid diethylamide]
EC50 [1]: > 25 µM

CCN(CC)S(=O)(=O)c1ccc(NC(=O)CNC(=O)c2ccc(OC)c(OC)c2)cc1 [Compound 79, N-[(4-Diethylsulfamoyl-phenylcarbamoyl)-methyl]-3,4-dimethoxy-benzamide]
EC50 [1]: > 25 µM

CC1CCN(S(=O)(=O)c2ccc(NC(=O)Cn3cnc4ccccc4c3=O)cc2)CC1 [Compound 47, N-[4-(4-Methyl-piperidine-1-sulfonyl)-phenyl]-2-(4-oxo-4H-quinazolin-3-yl)-acetamide]
EC50 [1]: > 25 µM

CCN(CC)S(=O)(=O)c1ccc(NC(=O)COC(=O)Cn2nnc3ccccc3c2=O)cc1 [Compound 81, (4-Oxo-4H-benzo[d][1,2,3]triazin-3-yl)-acetic acid (4-diethylsulfamoyl-phenylcarbamoyl)-methyl ester]
EC50 [1]: > 25 µM

NS(=O)(=O)c1ccc(NC(=O)Cn2cnc3ccccc3c2=O)cc1 [Compound 38, 2-(4-Oxo-4H-quinazolin-3-yl)-N-(4-sulfamoyl-phenyl)-acetamide]
EC50 [1]: > 25 µM

O=C(Cn1nnc2ccccc2c1=O)Nc1ccc(S(=O)(=O)N2CCCCC2)cc1 [Compound 87, 2-(4-Oxo-4H-benzo[d][1,2,3]triazin-3-yl)-N-[4-(piperidine-1-sulfonyl)-phenyl]-acetamide]
EC50 [1]: > 25 µM

CC1CC(C)CN(S(=O)(=O)c2ccc(NC(=O)Cn3cnc4ccccc4c3=O)cc2)C1 (centres unmarked) [Compound 19, N-[4-(3,5-Dimethyl-piperidine-1-sulfonyl)-phenyl]-2-(4-oxo-4H-quinazolin-3-yl)-acetamide]
EC50 [1]: 1 to 10 µM

CCN(CC)S(=O)(=O)c1ccc(C(=O)OCc2nc3ccccc3c(=O)n2CC(N)=O)cc1 [Compound 66, 4-Diethylsulfamoyl-benzoic acid 3-carbamoylmethyl-4-oxo-3,4-dihydro-quinazolin-2-ylmethyl ester]
EC50 [1]: > 25 µM

CC1CCCN(S(=O)(=O)c2ccc(NC(=O)Cn3cnc4ccccc4c3=O)cc2)C1 (centres unmarked) [Compound 53, N-[4-(3-Methyl-piperidine-1-sulfonyl)-phenyl]-2-(4-oxo-4H-quinazolin-3-yl)-acetamide]
EC50 [1]: > 25 µM
